In the oligonucleotide strings, read from the 5' end, every base follows the letter of its sugar. An asterisk marks phosphorothioate; unmarked linkages are phosphodiester. Other units and linkages are bracketed, terminal groups are in braces. A string of capitals states the bases alone. e = 2'-O-(2-methoxyethyl) (MOE); [5mC] = 5-methylcytosine; d = 2'-deoxy (DNA)
Tested on: mouse growth hormone receptor mRNA
Assay: Inhibition of mouse growth hormone receptor mRNA levels in b.END cells, quantitative real-time PCR
Assay type: cell-based
Parameters: % INHIB: concentration or dose not given beside the values
Conditions: dose-response studies
Experimental: The mouse brain endothelial cell line b.END was obtained from Dr. Werner Risau at the Max Plank Instititute (Bad Nauheim, Germany). b.END cells were routinely cultured in DMEM, high glucose (Gibco/Life Technologies, Gaithersburg, Md.) supplemented with 10% fetal calf serum (Gibco/Life Technologies, Gaithersburg, Md.). Cells were routinely passaged by trypsinization and dilution when they reached 90% confluence. Cells were seeded into 96-well plates (Falcon-Primaria #3872) at a density of 3000 cells/well for use in RT-PCR analysis.
When cells reached 65-75% confluency, they were treated with oligonucleotide. For cells grown in 96-well plates, wells were washed once with 100 μL OPTI-MEM™-1 reduced-serum medium (Invitrogen Corporation, Carlsbad, Calif.) and then treated with 130 μL of OPTI-MEM™-1 containing 3.75 μg/mL LIPOFECTIN™ (Invitrogen Corporation, Carlsbad, Calif.) and the desired concentration of oligonucleotide. Cells are treated and data are obtained in triplicate. After 4-7 hours of treatment at 37° C., the medium was replaced with fresh medium. Cells were harvested 16-24 hours after oligonucleotide treatment.
Total RNA was isolated using an RNEASY 96™ kit and buffers purchased from Qiagen Inc. (Valencia, Calif.) following the manufacturer's recommended procedures. Briefly, for cells grown on 96-well plates, growth medium was removed from the cells and each well was washed with 200 μL cold PBS. 150 μL Buffer RLT was added to each well and the plate vigorously agitated for 20 seconds. 150 μL of 70% ethanol was then added to each well and the contents mixed by pipetting three times up and down. The samples were then transferred to the RNEASY 96™ well plate attached to a QIAVAC™ manifold fitted with a waste collection tray and attached to a vacuum source. Vacuum was applied for 1 minute. 500 μL of Buffer RW1 was added to each well of the RNEASY 96™ plate and incubated for 15 minutes and the vacuum was again applied for 1 minute. An additional 500 μL of Buffer RW1 was added to each well of the RNEASY 96™ plate and the vacuum was applied for 2 minutes. 1 mL of Buffer RPE was then added to each well of the RNEASY 96™ plate and the vacuum applied for a period of 90 seconds. The Buffer RPE wash was then repeated and the vacuum was applied for an additional 3 minutes. The plate was then removed from the QIAVAC™ manifold and blotted dry on paper towels. The plate was then re-attached to the QIAVAC™ manifold fitted with a collection tube rack containing 1.2 mL collection tubes. RNA was then eluted by pipetting 140 μL of RNAse free water into each well, incubating 1 minute, and then applying the vacuum for 3 minutes.
Quantitation of growth hormone receptor mRNA levels was accomplished by real-time quantitative PCR using the ABI PRISM™ 7600, 7700, or 7900 Sequence Detection System (PE-Applied Biosystems, Foster City, Calif.) according to manufacturer's instructions. This is a closed-tube, non-gel-based, fluorescence detection system which allows high-throughput quantitation of polymerase chain reaction (PCR) products in real-time. As opposed to standard PCR in which amplification products are quantitated after the PCR is completed, products in real-time quantitative PCR are quantitated as they accumulate. This is accomplished by including in the PCR reaction an oligonucleotide probe that anneals specifically between the forward and reverse PCR primers, and contains two fluorescent dyes. A reporter dye (e.g., FAM or JOE, obtained from either PE-Applied Biosystems, Foster City, Calif., Operon Technologies Inc., Alameda, Calif. or Integrated DNA Technologies Inc., Coralville, Iowa) is attached to the 5′ end of the probe and a quencher dye (e.g., TAMRA, obtained from either PE-Applied Biosystems, Foster City, Calif., Operon Technologies Inc., Alameda, Calif. or Integrated DNA Technologies Inc., Coralville, Iowa) is attached to the 3′ end of the probe. […]

| Substance | IC50 |
| --- | --- |
| 227509 (antisense eG*e[5mC]*eA*eG*eT*dT*d[5mC]*dT*dA*dT*d[5mC]*dA*dG*dA*dA*e[5mC]*eT*eT*eT*eG) [compound 227509] | ~12.5 nM |

Same assay, conditions: mouse growth hormone receptor mRNA, b.END cells, averages from three experiments

| Substance | % INHIB |
| --- | --- |
| 227519 (antisense eT*e[5mC]*eA*e[5mC]*eA*d[5mC]*d[5mC]*dT*dA*d[5mC]*d[5mC]*dT*dT*dT*dG*e[5mC]*eT*eG*e[5mC]*eT) [compound 227519] | 44% |
| 227496 (antisense eG*e[5mC]*eA*eT*eT*d[5mC]*dA*dA*dT*dT*dT*d[5mC]*d[5mC]*dT*dG*eA*eA*e[5mC]*eT*eG) [compound 227496] | 51% |
| 227517 (antisense e[5mC]*eT*eT*e[5mC]*eA*d[5mC]*dT*dA*dA*d[5mC]*d[5mC]*dT*dT*dG*d[5mC]*eA*eG*e[5mC]*eT*eT) [compound 227517] | 63% |
| 227463 (antisense eA*eT*e[5mC]*eA*eG*d[5mC]*dA*dT*d[5mC]*dT*dT*dA*dA*dT*d[5mC]*e[5mC]*eT*eT*eT*eG) [compound 227463] | 39% |
| 227492 (antisense eT*eA*eA*eA*eA*d[5mC]*dA*dT*dA*dG*dT*dT*dT*dT*dG*eG*eT*eT*eT*eA) [compound 227492] | 7% |
| 227450 (antisense eT*eG*eG*e[5mC]*eT*dT*dT*d[5mC]*d[5mC]*d[5mC]*dT*dT*dT*dT*dA*eG*e[5mC]*eA*eT*eA) [compound 227450] | 71% |
| 227462 (antisense eG*e[5mC]*eT*eT*eT*dG*dA*dA*dA*dA*dT*dA*dT*dA*dA*e[5mC]*eT*eA*e[5mC]*eA) [compound 227462] | 31% |
| 227511 (antisense e[5mC]*e[5mC]*eA*e[5mC]*eG*d[5mC]*dA*d[5mC]*d[5mC]*d[5mC]*dA*d[5mC]*dA*dA*dG*e[5mC]*eG*eG*eA*eT) [compound 227511] | 71% |
| 227491 (antisense eT*eA*eG*eG*eA*dA*dA*dG*dG*d[5mC]*dT*dA*d[5mC]*dT*dG*e[5mC]*eA*eT*eG*eA) [compound 227491] | 65% |
| 227516 (antisense eT*eT*eG*eG*e[5mC]*dT*dT*dT*d[5mC]*d[5mC]*d[5mC]*dT*dG*dG*dA*eG*eG*eT*eT*e[5mC]) [compound 227516] | 57% |
| 227515 (antisense eA*eA*eA*eT*eT*d[5mC]*dT*dT*dA*d[5mC]*dT*dT*dG*dT*d[5mC]*e[5mC]*e[5mC]*e[5mC]*eA*eG) [compound 227515] | 37% |
| 227455 (antisense eA*eG*eT*eA*eG*dG*dG*dT*dA*dT*d[5mC]*d[5mC]*dA*dA*dA*eT*eG*eG*eA*eG) [compound 227455] | 43% |
| 227447 (antisense eG*e[5mC]*eT*eG*eG*dT*dG*dT*dA*dG*d[5mC]*d[5mC]*dT*d[5mC]*dA*e[5mC]*eT*eT*e[5mC]*e[5mC]) [compound 227447] | 77% |
| 227473 (antisense eA*eA*eG*eT*e[5mC]*dA*dA*dT*dG*dT*dT*dT*dG*d[5mC]*d[5mC]*eA*eG*eT*eG*eA) [compound 227473] | 71% |
| 227446 (antisense eA*e[5mC]*eA*eA*eA*dG*dA*dT*d[5mC]*d[5mC]*dA*dT*dA*d[5mC]*d[5mC]*eT*eG*eA*eG*eA) [compound 227446] | 87% |
| 227467 (antisense e[5mC]*eA*eT*e[5mC]*eA*dT*dT*dG*dT*dA*dG*dA*dA*dG*dT*e[5mC]*eG*eG*eG*eT) [compound 227467] | 33% |
| 227443 (antisense eT*eG*e[5mC]*eT*eT*dG*dG*d[5mC]*dA*dG*d[5mC]*dT*d[5mC]*dG*dT*eG*eG*eG*eT*eT) [compound 227443] | 0% |
| 227509 (antisense eG*e[5mC]*eA*eG*eT*dT*d[5mC]*dT*dA*dT*d[5mC]*dA*dG*dA*dA*e[5mC]*eT*eT*eT*eG) [compound 227509] | 82% |
| 227461 (antisense eT*eG*e[5mC]*eT*eA*d[5mC]*dT*d[5mC]*d[5mC]*dA*dA*dA*dT*dA*dT*eT*e[5mC]*e[5mC]*eA*eA) [compound 227461] | 75% |

| Substance | % INHIB |
| --- | --- |
| 227448 (antisense eT*eT*eT*eG*e[5mC]*d[5mC]*dA*dA*dG*dA*dG*dT*dA*dG*d[5mC]*eT*eG*eG*eT*eG) [compound 227448] | 60% |
| 227505 (antisense eT*eA*e[5mC]*e[5mC]*eT*dG*dA*dG*dA*d[5mC]*d[5mC]*d[5mC]*dA*d[5mC]*dA*eA*eG*e[5mC]*eG*eG) [compound 227505] | 39% |
| 227454 (antisense eA*eG*eT*eT*eG*dA*dA*dG*dT*dA*dA*d[5mC]*dA*dG*d[5mC]*eT*eG*eT*eT*eT) [compound 227454] | 69% |
| 227465 (antisense eT*eG*eA*eG*eA*dA*dG*dA*dT*d[5mC]*dT*dG*dG*dA*dT*e[5mC]*eA*eA*eT*e[5mC]) [compound 227465] | 51% |
| 227503 (antisense eT*eA*e[5mC]*e[5mC]*eT*dG*dA*dG*dA*d[5mC]*d[5mC]*d[5mC]*d[5mC]*dA*dG*eT*eT*e[5mC]*eA*eT) [compound 227503] | 24% |
| 227459 (antisense e[5mC]*eT*eG*eA*eA*d[5mC]*dT*d[5mC]*dG*d[5mC]*dT*dG*dT*dA*d[5mC]*eT*eT*eT*eT*e[5mC]) [compound 227459] | 60% |
| 227466 (antisense eT*eT*eG*eT*eA*dG*dT*dT*dA*dT*d[5mC]*dA*dT*dG*dA*eA*eT*eG*e[5mC]*e[5mC]) [compound 227466] | 50% |
| 227512 (antisense eT*eA*eA*e[5mC]*e[5mC]*dT*dA*dT*dG*dG*dT*dG*dA*d[5mC]*dT*eA*eT*eG*eT*e[5mC]) [compound 227512] | 36% |
| 227477 (antisense e[5mC]*eA*e[5mC]*eT*eG*dT*dT*d[5mC]*dA*dT*dG*d[5mC]*dT*dG*dT*eA*eA*eT*eT*eT) [compound 227477] | 61% |
| 227486 (antisense e[5mC]*eG*eG*eT*eG*dT*dG*dA*dA*d[5mC]*d[5mC]*dG*dT*dG*dG*eT*eG*eT*eA*eG) [compound 227486] | 39% |
| 227498 (antisense eT*eT*eG*eT*eA*dA*dA*dA*dA*dT*d[5mC]*dT*dA*dA*d[5mC]*eT*eT*eG*eT*eT) [compound 227498] | 49% |
| 227476 (antisense eG*eT*eA*eA*eT*dT*dT*dT*d[5mC]*dT*dT*dG*dG*d[5mC]*dA*eG*eG*eG*e[5mC]*eG) [compound 227476] | 41% |
| 227487 (antisense eT*e[5mC]*eA*eG*eG*d[5mC]*dA*dA*dA*dG*dG*d[5mC]*dA*dA*dA*eG*e[5mC]*eA*eG*eT) [compound 227487] | 44% |
| 227506 (antisense e[5mC]*e[5mC]*eT*e[5mC]*e[5mC]*dA*dG*dT*dA*d[5mC]*d[5mC]*dT*d[5mC]*dG*dG*eA*eG*eT*eT*eT) [compound 227506] | 69% |
| 227518 (antisense e[5mC]*eA*e[5mC]*eG*eG*d[5mC]*dT*dT*dA*d[5mC]*d[5mC]*dT*dA*dT*dT*eT*e[5mC]*eG*eT*e[5mC]) [compound 227518] | 6% |
| 227472 (antisense eA*eG*eA*eG*e[5mC]*d[5mC]*dA*dA*dG*dG*dG*dA*dA*dG*d[5mC]*eA*eT*e[5mC]*eA*eT) [compound 227472] | 42% |
| 227494 (antisense e[5mC]*eA*eA*eA*eA*dG*d[5mC]*d[5mC]*dA*d[5mC]*d[5mC]*dT*dG*dA*dT*eT*eG*eT*eT*eT) [compound 227494] | 56% |
| 227458 (antisense eG*eT*eA*e[5mC]*eT*dG*dA*dA*dT*dT*dT*d[5mC]*dA*dT*dA*e[5mC]*eT*e[5mC]*e[5mC]*eA) [compound 227458] | 75% |
| 227478 (antisense eT*eT*eT*eT*eT*dG*dG*d[5mC]*dA*dT*d[5mC]*dT*dG*dA*d[5mC]*eT*e[5mC]*eA*e[5mC]*eA) [compound 227478] | 68% |

Reference: US8637484B2, “Modulation of growth hormone receptor expression and insulin-like growth factor expression” (Antisense Therapeutic Limited, priority 2003, dated 2014)
